Assay results taken from patent US9452980B2, “Substituted benzamides” (Hoffmann-La Roche Inc., priority 2009, dated 2016).
Where a name gives a salt, the structure may show the parent alone. Read-outs that look alike come from different tables or passages of the source.

What was measured:
rat TAAR1 = rat TAAR1 (Rattus norvegicus (Rat), UniProt Q923Y9); experiment: Radioligand binding assay on rat TAAR1
Outline: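 Membranes from HEK293 cells stably expressing rat TAAR1, with Kd checked per batch by saturation. Competition with ³H-(S)-4-[(ethyl-phenyl-amino)-methyl]-4,5-dihydro-oxazol-2-ylamine, compounds 10 pM–10 μM in duplicate, 1 hr at 4 °C. Filtration then scintillation counting; nonspecific binding defined with 10 μM unlabeled ligand.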

mouse TAAR1 = mouse TAAR1 (Mus musculus (Mouse), UniProt Q923Y8); experiment: Radioligand binding assay on mouse TAAR1
Outline: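 Membranes were from HEK293 cells stably expressing mouse TAAR1. Compounds from 10 pM to 10 μM, in duplicate, competed with [3H]-(S)-4-[(ethyl-phenyl-amino)-methyl]-4,5-dihydro-oxazol-2-ylamine for 1 h at 4 °C. Nonspecific binding was defined with 10 μM unlabelled ligand, and bound radioactivity was read by filtration and scintillation.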

[1] = rat TAAR1, HEK-293 membranes, second value of cell mouse/rat, read-out: Ki (μM) rat
[2] = mouse TAAR1, HEK-293 membranes, first value of cell mouse/rat, read-out: Ki (μM) mouse

Chain of rat TAAR1 (Q923Y9 whole entry): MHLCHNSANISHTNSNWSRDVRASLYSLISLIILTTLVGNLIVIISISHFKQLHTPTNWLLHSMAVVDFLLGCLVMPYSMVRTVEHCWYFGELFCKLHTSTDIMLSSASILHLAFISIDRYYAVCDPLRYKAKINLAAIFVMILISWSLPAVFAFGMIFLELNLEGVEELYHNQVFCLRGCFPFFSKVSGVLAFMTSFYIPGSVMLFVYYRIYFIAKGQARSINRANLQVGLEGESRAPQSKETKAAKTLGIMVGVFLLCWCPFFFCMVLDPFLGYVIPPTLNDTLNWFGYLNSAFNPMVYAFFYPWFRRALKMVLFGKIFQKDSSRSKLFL
Chain of mouse TAAR1 (Q923Y8 whole entry): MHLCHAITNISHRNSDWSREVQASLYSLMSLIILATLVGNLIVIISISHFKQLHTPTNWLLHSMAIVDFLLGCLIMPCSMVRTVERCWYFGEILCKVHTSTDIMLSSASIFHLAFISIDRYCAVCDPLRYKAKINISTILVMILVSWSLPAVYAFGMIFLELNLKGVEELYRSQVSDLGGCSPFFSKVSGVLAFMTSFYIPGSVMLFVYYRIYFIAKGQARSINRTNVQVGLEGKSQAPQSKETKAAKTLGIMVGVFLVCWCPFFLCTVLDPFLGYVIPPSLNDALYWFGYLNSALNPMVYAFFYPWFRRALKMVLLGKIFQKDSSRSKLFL

Compound	Ki (rat TAAR1; [1])	Ki (mouse TAAR1; [2])	also measured
Cc1cc(C(=O)Nc2ccc([C@@H]3CCCNC3)cc2)cc(Cl)n1 [Example 282, (S)-2-Chloro-6-methyl-N-(4-(piperidin-3-yl)phenyl)isonicotinamide]	0.0048 µM	–	Ki (mouse TAAR1; read-out: Ki (μM) mouse): 0.243 µM
O=C(Nc1cccc(C2CNCCO2)c1)c1ccc(Cl)cc1 (racemic) [Example 72, (RS)-4-Chloro-N-(3-morpholin-2-yl-phenyl)-benzamide hydrochloride]	0.107 µM	0.507 µM	–
O=C(Nc1ccc([C@H]2CNCCO2)cc1)c1ccc(OCC(F)(F)F)nc1 [Example 269, (S)—N-(4-(Morpholin-2-yl)phenyl)-6-(2,2,2-trifluoroethoxy)nicotinamide hydrochloride]	–	–	Ki (rat TAAR1; read-out: Ki (μM) rat): 0.003 µM; Ki (mouse TAAR1; read-out: Ki (μM) mouse): 0.0099 µM
Cc1ccc(C(=O)Nc2ccc([C@@H]3CCCNC3)cc2)cc1C [Example 227, (S)-3,4-Dimethyl-N-(4-(piperidin-3-yl)phenyl)benzamide hydrochloride]	0.0012 µM	–	Ki (mouse TAAR1; read-out: Ki (μM) mouse): 0.177 µM
O=C(Nc1ccc(C2CNCCO2)cc1)c1cc(Cl)nc(Cl)c1 (racemic) [Example 221, (RS)-2,6-Dichloro-N-(4-(morpholin-2-yl)phenyl)isonicotinamide hydrochloride]	–	–	Ki (rat TAAR1; read-out: Ki (μM) rat): 0.0037 µM; Ki (mouse TAAR1; read-out: Ki (μM) mouse): 0.005 µM
O=C(Nc1ccc([C@H]2CCCNC2)cc1)c1ccc(Cl)cn1 [Example 167, (R)-5-Chloro-N-(4-(piperidin-3-yl)phenyl)picolinamide hydrochloride]	0.0048 µM	–	Ki (mouse TAAR1; read-out: Ki (μM) mouse): 0.0271 µM
O=C(Nc1ccc([C@@H]2CCCNC2)cc1)c1cnc(Br)cn1 [Example 251, (S)-5-Bromo-N-(4-(piperidin-3-yl)phenyl)pyrazine-2-carboxamide 2,2,2-trifluoroacetate]	–	0.48 µM	Ki (rat TAAR1; read-out: Ki (μM) rat): 0.0054 µM
Cc1cc(C(=O)Nc2ccc(C3CNCCO3)cc2)ccn1 (racemic) [Example 294, (RS)-2-Methyl-N-(4-(morpholin-2-yl)phenyl)isonicotinamide dihydrochloride]	0.0226 µM	1.18 µM	–
Cc1cc(C(=O)Nc2ccc([C@@H]3CNCCO3)cc2)cc(Cl)n1 [Example 285, (R)-2-Chloro-6-methyl-N-(4-(morpholin-2-yl)phenyl)isonicotinamide hydrochloride]	0.005 µM	–	Ki (mouse TAAR1; read-out: Ki (μM) mouse): 0.0082 µM
O=C(Nc1ccc(C2CCNC2)cc1)Oc1ccc(F)cc1 (racemic) [Example 15, (RS)-(4-Pyrrolidin-3-yl-phenyl)-carbamic acid 4-fluoro-phenyl ester hydrochloride]	–	–	Ki (rat TAAR1): 0.0081 µM; Ki (mouse TAAR1): 0.0021 µM
CCOc1cc(C(=O)Nc2ccc(C3CNCCO3)cc2)ccn1 (racemic) [Example 300, (RS)-2-Ethoxy-N-(4-(morpholin-2-yl)phenyl)isonicotinamide hydrochloride]	0.002 µM	0.0726 µM	–
O=C(Nc1ccc([C@H]2CCCNC2)cc1)c1cccc(C(F)(F)F)c1 [Example 261, (R)—N-(4-(Piperidin-3-yl)phenyl)-3-(trifluoromethyl)benzamide hydrochloride]	–	0.0027 µM	Ki (rat TAAR1; read-out: Ki (μM) rat): 0.0015 µM
O=C(Nc1ccc([C@H]2CCCNC2)cc1)c1ccc(OCC(F)(F)F)nc1 [Example 223, (R)—N-(4-(Piperidin-3-yl)phenyl)-6-(2,2,2-trifluoroethoxy)nicotinamide hydrochloride]	–	0.0016 µM	Ki (rat TAAR1; read-out: Ki (μM) rat): 0.0018 µM
O=C(Nc1ccc([C@@H]2CNCCO2)cc1)c1cc(Cl)nc(Cl)c1 [Example 270, (R)-2,6-Dichloro-N-(4-(morpholin-2-yl)phenyl)isonicotinamide hydrochloride]	–	–	Ki (rat TAAR1; read-out: Ki (μM) rat): 0.0045 µM; Ki (mouse TAAR1; read-out: Ki (μM) mouse): 0.0049 µM
Cc1nc(-c2cnccn2)sc1C(=O)Nc1ccc(C2CNCCO2)cc1 (racemic) [Example 298, (RS)-4-Methyl-N-(4-(morpholin-2-yl)phenyl)-2-(pyrazin-2-yl)thiazole-5-carboxamide hydrochloride]	0.0143 µM	–	Ki (mouse TAAR1; read-out: Ki (μM) mouse): 0.0506 µM
Cc1ccc(C(=O)Nc2ccc([C@H]3CCCNC3)cc2)cc1C [Example 260, (R)-3,4-Dimethyl-N-(4-(piperidin-3-yl)phenyl)benzamide hydrochloride]	0.0012 µM	–	Ki (mouse TAAR1; read-out: Ki (μM) mouse): 0.016 µM
CO[C@H]1CC[C@@H](C(=O)Nc2ccc(C3CNCCO3)cc2)CC1 (mixture of isomers) [Example 254, cis-(RS)-4-Methoxy-N-(4-(morpholin-2-yl)phenyl)cyclohexanecarboxamide hydrochloride]	0.726 µM	2.82 µM	–
O=C(Nc1ccc([C@H]2CNCCO2)cc1)c1cccc(Cl)c1 [Example 263, (S)-3-Chloro-N-(4-(morpholin-2-yl)phenyl)benzamide hydrochloride]	–	–	Ki (rat TAAR1; read-out: Ki (μM) rat): 0.0011 µM; Ki (mouse TAAR1; read-out: Ki (μM) mouse): 0.0152 µM

The next lines start with results.

Ki (rat TAAR1; [1])	Ki (mouse TAAR1; [2])	Compound	also measured
0.102 µM	0.147 µM	CC(C(=O)Nc1ccc(C2CCNC2)cc1)c1cccc(C#N)c1 (racemic) [Example 68, (RS)-2-(3-Cyano-phenyl)-N—((RS)-4-pyrrolidin-3-yl-phenyl)-propionamide]	–
0.0375 µM	0.0021 µM	O=C(Nc1ccc(CCC2CCCNC2)cc1)c1ccc(Cl)cc1 (racemic) [Example 110, (RS)-4-Chloro-N-[4-(2-piperidin-3-yl-ethyl)-phenyl]-benzamide hydrochloride]	–
0.0143 µM	0.297 µM	Cc1ccc(C(=O)Nc2ccc([C@H]3CCCNC3)cc2)cn1 [Example 264, (R)-6-Methyl-N-(4-(piperidin-3-yl)phenyl)nicotinamide hydrochloride]	–
0.0024 µM	0.0201 µM	O=C(Nc1ccc(C2CNCCO2)cc1)c1ccc(C(F)(F)F)cn1 (racemic) [Example 141, (RS)-5-Trifluoromethyl-pyridine-2-carboxylic acid (4-morpholin-2-yl-phenyl)-amide hydrochloride]	–
0.0457 µM	2.83 µM	COC(C(=O)Nc1ccc(C2CCNC2)cc1)c1ccc(Cl)cc1 (racemic) [Example 60, (RS)-2-(4-Chloro-phenyl)-2-methoxy-N—((RS)-4-pyrrolidin-3-yl-phenyl)-acetamide]	–
0.0072 µM	0.0056 µM	CCCCc1ccc(NC(=O)Nc2ccc(C3CCNC3)cc2)c(C)c1 (racemic) [Example 1, (RS)-1-(4-Butyl-2-methyl-phenyl)-3-(4-pyrrolidin-3-yl-phenyl)-urea; hydrochloride]	–
0.0021 µM	0.0501 µM	COc1ccc(C(=O)Nc2ccc(C3CNCCO3)cc2)cc1 (racemic) [Example 190, (RS)-4-Methoxy-N-(4-(morpholin-2-yl)phenyl)benzamide hydrochloride]	–
0.0114 µM	0.0041 µM	O=C(Nc1ccc(C2CCCNC2)cc1)c1ccc(C(F)(F)F)cc1 (racemic) [Example 98, (RS)—N-(4-Piperidin-3-yl-phenyl)-4-trifluoromethyl-benzamide hydrochloride]	–
0.0382 µM	0.0349 µM	CC(C(=O)Nc1ccc(C2CCCNC2)cc1)c1cccc(Cl)c1 (racemic) [Example 111, (RS)-2-(3-Chloro-phenyl)-N—((RS)-4-piperidin-3-yl-phenyl)-propionamide]	–
0.0005 µM	0.0055 µM	O=C(Nc1ccc(C2CCNCC2)cc1)c1ccc(Cl)cc1 [Example 57, 4-Chloro-N-(4-piperidin-4-yl-phenyl)-benzamide hydrochloride]	–
0.0646 µM	0.705 µM	CC(C(=O)Nc1ccc(C2CCCNC2)cc1)c1ccc(Cl)cc1 (racemic) [Example 103, (RS)-2-(4-Chloro-phenyl)-N—((RS)-4-piperidin-3-yl-phenyl)-propionamide]	–
0.0044 µM	0.018 µM	CCc1ccc(C(=O)Nc2ccc([C@@H]3CCCNC3)cc2)cn1 [Example 297, (S)-6-Ethyl-N-(4-(piperidin-3-yl)phenyl)nicotinamide]	–
0.001 µM	0.0011 µM	O=C(Nc1ccc(CC2CCNC2)cc1)c1ccc(Cl)cc1 (racemic) [Example 149, (RS)-4-Chloro-N-(4-pyrrolidin-3-ylmethyl-phenyl)-benzamide hydrochloride]	–
0.0015 µM	0.0013 µM	O=C(Nc1ccc(C2CCNC2)cc1)Nc1ccc(C(F)(F)F)cc1 (racemic) [Example 27, (RS)-1-(4-Pyrrolidin-3-yl-phenyl)-3-(4-trifluoromethyl-phenyl)-urea hydrochloride]	–
0.004 µM	0.786 µM	CSc1cnc(C(=O)Nc2ccc([C@@H]3CCCNC3)cc2)cn1 [Example 257, (S)-5-(Methylthio)-N-(4-(piperidin-3-yl)phenyl)pyrazine-2-carboxamide]	–
0.0056 µM	0.288 µM	O=C(Nc1ccc([C@@H]2CCCNC2)cc1)c1cnc(OCC(F)(F)F)cn1 [Example 250, (S)—N-(4-(Piperidin-3-yl)phenyl)-5-(2,2,2-trifluoroethoxy)pyrazine-2-carboxamide hydrochloride]	–
0.0131 µM	0.0507 µM	O=C(Nc1ccc(C2CCCNC2)cc1)c1ccc(F)cn1 (racemic) [Example 180, (RS)-5-Fluoro-N-(4-(piperidin-3-yl)phenyl)picolinamide hydrochloride]	–
0.0087 µM	0.0872 µM	O=C(Nc1ccc(C2CNCCO2)cc1)c1ccnc(Cl)c1 (racemic) [Example 218, (RS)-2-Chloro-N-(4-(morpholin-2-yl)phenyl)isonicotinamide hydrochloride]	–
0.0223 µM	0.0039 µM	COc1ccc2nc(C(=O)Nc3ccc(C4CCNC4)cc3)ccc2c1 (racemic) [Example 91, (RS)-6-Methoxy-quinoline-2-carboxylic acid (4-pyrrolidin-3-yl-phenyl)-amide hydrochloride]	–
